Assay results from article PMC7413254 (Nature Communications, 2020).
Read-outs that look alike come from different tables or passages of the source.

How the values were obtained:
[1] = target: T1, PfCRT^3D7 (Plasmodium falciparum, UniProt Q8IBZ9); assay: cell-based; type: cell-based; details: total [3H]CQ transport; for inhibition at 500 µM: [test solute] = 0.5 mM; for inhibition at 1000 µM: [test solute] = 1 mM; for inhibition at 2000 µM: [test solute] = 2 mM
Outline: (§1)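 Oocytes expressing PfCRT isoforms, or non-expressing controls, were incubated 1.5 h at 27.5 °C in ND96 buffer pH 5.5 (96 mM NaCl, 2 mM KCl, 1 mM MgCl2, 1.8 mM CaCl2, 10 mM MES, 10 mM Tris-base), measuring uptake from acidic medium into cytosol. Oocytes were washed ice-cold, SDS-lysed and counted by scintillation.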

[2] = test system: non-expressing oocytes; assay: cells; type: cell-based, Xenopus laevis; details: Xenopus laevis, total [3H]CQ transport; for inhibition at 500 µM: [test solute] = 0.5 mM; for inhibition at 1000 µM: [test solute] = 1 mM; for inhibition at 2000 µM: [test solute] = 2 mM
Outline: as §1

[3] = target: T2, PfCRT^Ecu1110 (Plasmodium falciparum, UniProt Q9N623, A220S/I356L/K76T/N326D); assay: cell-based; type: cell-based; details: […]
Outline: (§2)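 Transport measured in Xenopus oocytes expressing the transporters, 1.5 h at 27.5 °C in ND96 pH 5.5 unless noted. For trans-stimulation, VF-6 injected in 25 nL ND96 at pH 5.0–7.0 or Na^+-free (choline) buffer; intracellular levels based on ~400 nL oocyte volume. Ten oocytes per treatment, ≥4 experiments.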

[4] = target: T3, PfCRT^Dd2 (Plasmodium falciparum, UniProt Q9N623, A220S/I356T/K76T/M74I/N326S/N75E/Q271E/R371I); assay: cell-based; type: cell-based; details: […]; for activity at 45000 µM: [test solute]i = 45 mM (30 mM for some solutes due to solubility)
Outline: as §2

[5] = target: T1, PfCRT^3D7; assay: cell-based; type: cell-based
Outline: as §2

[6] = target: T4, PfNT1 (Plasmodium falciparum, UniProt Q8IDM6); assay: cell-based; type: cell-based; details: for activity at 5000 µM: total [3H]CQ transport
T4 construct: expressed in transfected cells; host or cells: Xenopus laevis oocytes (stage V-VI), cRNA-injected
Outline: as §2

[7] = test system: PfCRT; assay: Test of solutes as potential co-substrates for influx of VF-6 via PfCRT into the oocyte; type: cell-based, Plasmodium falciparum; design: key: X: Compounds that have been tested as potential co-substrates but are not required for influx of VF-6 via PfCRT into the oocyte; details: X = tested
[8] = target: T2, PfCRT^Ecu1110; assay: [3H]CQ uptake into Xenopus oocytes, cis-inhibition by unlabelled solute; type: cell-based
Outline: as §1

[9] = target: T3, PfCRT^Dd2; assay: as above; type: cell-based
Outline: as §1

[10] = test system: non-expressing oocytes; type: cell-based, Xenopus laevis; details: total [3H]CQ transport; for Uptake of [3H]CQ (% non-expressing oocyte control), trans-stimulation: non-expressing oocytes, normalised to the oocyte type control; for Uptake of [3H]CQ (% PfCRTDd2 control), trans-stimulation, non-expressing oocytes: mean ± SEM, SEM
Outline: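 Oocytes (ten per treatment, ≥4 independent frogs/days) were preloaded by injecting VF-6 in 25 nL ND96 at pH 5.0, 5.5, 6.0 or 7.0, or Na^+-free choline buffer, then uptake run 1.5 h, 27.5 °C, ND96 pH 5.5 by default. Internal concentrations assumed ~400 nL oocyte volume.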

[11] = test system: PfCRT; assay: Potential co-substrates tested for influx of VF-6 via PfCRT into the oocyte; type: cell-based, Plasmodium falciparum; design: key: X: Compounds that have been tested as potential co-substrates but are not required for influx of VF-6 via PfCRT into the oocyte
[12] = PfCRT3D7 oocytes, normalised to the oocyte type control, read-out: Uptake of [3H]CQ (% PfCRT3D7 control), cis-inhibition
[13] = mean ± SEM, SEM, read-out: Uptake of [3H]CQ (% PfCRTDd2 control), cis-inhibition, PfCRT3D7
[14] = Oocyte, mean ± SEM, SEM, read-out: Uptake of [3H]CQ (% PfCRTDd2 control), cis-inhibition, non-expressing oocytes
[15] = non-expressing oocytes, normalised to the oocyte type control, read-out: Uptake of [3H]CQ (% non-expressing oocyte control), cis-inhibition
[16] = read-out: PfCRT-mediated [3H]CQ transport, cis-inhibition (% PfCRTEcu1110 control)
[17] = read-out: Uptake of [3H]CQ (% PfCRTDd2 control), cis-inhibition, PfCRTEcu1110, SEM
[18] = read-out: Uptake of [3H]CQ (% PfCRTEcu1110 control), cis-inhibition
[19] = read-out: [3H]CQ transport (% PfCRTEcu1110 control), cis-inhibition, PfCRTEcu1110, SEM
[20] = read-out: PfCRT-mediated [3H]CQ transport, cis-inhibition (% PfCRTDd2 control)
[21] = read-out: Uptake of [3H]CQ (% PfCRTDd2 control), cis-inhibition, PfCRTDd2, SEM

T2 sequence (Q9N623 whole entry A220S/I356L/K76T/N326D): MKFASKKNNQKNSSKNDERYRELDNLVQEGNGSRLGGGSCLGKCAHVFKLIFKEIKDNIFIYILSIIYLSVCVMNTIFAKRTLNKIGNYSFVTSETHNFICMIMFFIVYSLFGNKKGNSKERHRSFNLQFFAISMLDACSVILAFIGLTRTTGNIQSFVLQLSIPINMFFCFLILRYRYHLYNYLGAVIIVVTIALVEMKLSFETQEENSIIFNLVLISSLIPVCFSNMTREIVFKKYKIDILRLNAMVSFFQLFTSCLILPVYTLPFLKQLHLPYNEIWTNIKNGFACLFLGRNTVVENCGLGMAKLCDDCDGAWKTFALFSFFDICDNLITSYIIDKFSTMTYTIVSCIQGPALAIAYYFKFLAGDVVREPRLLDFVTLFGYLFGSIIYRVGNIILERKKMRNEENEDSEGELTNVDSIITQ
T3 sequence (Q9N623 whole entry A220S/I356T/K76T/M74I/N326S/N75E/Q271E/R371I): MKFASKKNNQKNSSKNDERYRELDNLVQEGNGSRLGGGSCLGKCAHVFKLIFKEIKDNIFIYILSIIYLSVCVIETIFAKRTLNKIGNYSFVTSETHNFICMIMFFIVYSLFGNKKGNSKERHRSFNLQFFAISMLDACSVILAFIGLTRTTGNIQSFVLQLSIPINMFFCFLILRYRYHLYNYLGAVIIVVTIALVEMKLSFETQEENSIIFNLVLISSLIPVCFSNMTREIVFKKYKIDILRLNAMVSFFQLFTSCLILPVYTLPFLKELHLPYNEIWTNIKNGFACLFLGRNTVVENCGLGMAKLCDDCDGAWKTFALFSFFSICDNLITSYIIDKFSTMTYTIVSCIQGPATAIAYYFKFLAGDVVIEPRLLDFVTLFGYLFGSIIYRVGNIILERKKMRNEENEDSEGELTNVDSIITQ
T4 sequence (Q8IDM6 whole entry): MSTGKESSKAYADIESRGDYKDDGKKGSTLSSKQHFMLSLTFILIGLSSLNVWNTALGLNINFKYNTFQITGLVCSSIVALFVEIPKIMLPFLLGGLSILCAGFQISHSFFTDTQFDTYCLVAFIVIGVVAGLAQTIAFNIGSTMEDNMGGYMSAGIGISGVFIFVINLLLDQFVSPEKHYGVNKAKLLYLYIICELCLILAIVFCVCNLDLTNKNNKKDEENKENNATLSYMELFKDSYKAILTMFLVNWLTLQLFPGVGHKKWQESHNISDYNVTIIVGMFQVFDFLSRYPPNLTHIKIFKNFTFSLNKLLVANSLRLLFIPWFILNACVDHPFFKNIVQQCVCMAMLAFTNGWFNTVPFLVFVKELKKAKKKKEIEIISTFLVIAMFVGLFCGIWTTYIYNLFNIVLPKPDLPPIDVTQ
T1 sequence (Q8IBZ9 59-398): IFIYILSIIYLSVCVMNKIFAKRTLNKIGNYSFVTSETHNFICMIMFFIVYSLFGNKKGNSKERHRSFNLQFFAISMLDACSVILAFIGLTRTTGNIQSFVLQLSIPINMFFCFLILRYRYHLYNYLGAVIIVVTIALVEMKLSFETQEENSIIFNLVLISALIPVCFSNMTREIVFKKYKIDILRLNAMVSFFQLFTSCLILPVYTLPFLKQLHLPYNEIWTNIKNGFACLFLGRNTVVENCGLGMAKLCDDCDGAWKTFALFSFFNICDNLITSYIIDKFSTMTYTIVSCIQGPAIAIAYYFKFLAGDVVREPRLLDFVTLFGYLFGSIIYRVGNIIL

## C[C@@H](O)[C@H](N)C(=O)O [L-threonine]
[1]; [12]
  inhibition at 500 µM: 100 ± 4.7%
  inhibition at 1000 µM: 100 ± 5.3%
  inhibition at 2000 µM: 99 ± 5.3%
[1]; [13]
  inhibition at 500 µM: 2.9 ± 0.03%
  inhibition at 1000 µM: 2.8 ± 0.07%
  inhibition at 2000 µM: 3.3 ± 0.03%
[2]; [14]
  inhibition at 500 µM: 2.2 ± 0.04%
  inhibition at 1000 µM: 3.8 ± 0.08%
  inhibition at 2000 µM: 2.8 ± 0.02%
[2]; [15]
  inhibition at 500 µM: 95 ± 5.4%
  inhibition at 1000 µM: 98 ± 3.6%
  inhibition at 2000 µM: 100 ± 3.6%
[3]; pH 5.5, read-out: PfCRT-mediated [3H]CQ transport, trans-stimulation (% PfCRTEcu1110 control), [test solute]i = 5 mM (intracellular), PfCRTEcu1110 oocytes, normalised to oocyte type control
  activity at 5000 µM: 99 ± 3.4%
[3]; pH 5.5, read-out: Uptake of [3H]CQ (% PfCRTEcu1110 control), trans-stimulation, PfCRTEcu1110 oocytes, [test solute]i = 5 mM, total [3H]CQ transport, normalised to the oocyte type control
  activity at 5000 µM: 101 ± 2.5%
[3]; pH 5.5, read-out: Uptake of [3H]CQ (% PfCRTEcu1110 control), trans-stimulation, PfCRTEcu1110 oocytes, [test solute]i = 45 mM (30 mM for some solutes due to solubility), total [3H]CQ transport, normalised to the oocyte type control
  activity at 45000 µM: 99 ± 2%
[3]; read-out: Uptake of [3H]CQ (% PfCRTDd2 control), trans-stimulation, PfCRTEcu1110, total [3H]CQ transport, [test solute]i = 5 mM (intracellular), mean ± SEM, SEM
  activity at 5000 µM: 36 ± 1.9%
[3]; read-out: Uptake of [3H]CQ (% PfCRTDd2 control), trans-stimulation, PfCRTEcu1110, total [3H]CQ transport, [test solute]i = 45 mM (intracellular; 30 mM for some solutes due to solubility), mean ± SEM, SEM
  activity at 45000 µM: 35 ± 1.3%
[4]; pH 5.5, read-out: PfCRT-mediated [3H]CQ transport, trans-stimulation (% PfCRTDd2 control), [test solute]i = 5 mM (intracellular), PfCRTDd2 oocytes, normalised to oocyte type control
  activity at 5000 µM: 96 ± 3.2%
[4]; pH 5.5, read-out: Uptake of [3H]CQ (% PfCRTDd2 control), trans-stimulation, PfCRTDd2, total [3H]CQ transport, [test solute]i = 5 mM (intracellular), mean ± SEM, SEM
  activity at 5000 µM: 98 ± 3.2%
[4]; pH 5.5, read-out: Uptake of [3H]CQ (% PfCRTDd2 control), trans-stimulation, PfCRTDd2 oocytes, [test solute]i = 5 mM, total [3H]CQ transport, normalised to the oocyte type control
  activity at 5000 µM: 98 ± 3.2%
[4]; pH 5.5, read-out: Uptake of [3H]CQ (% PfCRTDd2 control), trans-stimulation, PfCRTDd2 oocytes, total [3H]CQ transport, normalised to the oocyte type control
  activity at 45000 µM: 99 ± 3.2%
[4]; pH 5.5, read-out: [3H]CQ transport (% PfCRTDd2 control), trans-stimulation, PfCRTDd2, trans-stimulation, [test solute]i = 5 mM (injected), PfCRT-mediated component (background subtracted), mean ± SEM, SEM
  activity at 5000 µM: 96 ± 3.2%
[4]; pH 5.5, read-out: [3H]CQ transport (% PfCRTDd2 control), trans-stimulation, PfCRTDd2, trans-stimulation, PfCRT-mediated component (background subtracted), mean ± SEM, SEM
  activity at 45000 µM: 97 ± 3.9%
[5]; PfCRT3D7 oocytes, [test solute]i = 5 mM, total [3H]CQ transport, normalised to the oocyte type control, read-out: Uptake of [3H]CQ (% PfCRT3D7 control), trans-stimulation
  activity at 5000 µM: 99 ± 4.2%
[5]; SEM
  [3H]CQ transport (% PfCRT3D7 control), trans-stimulation, PfCRT3D7: 0.3 ± 0.01 % PfCRT3D7 control
[5]; [test solute]i = 5 mM (intracellular), PfCRT3D7 oocytes, normalised to oocyte type control, read-out: PfCRT-mediated [3H]CQ transport, trans-stimulation (% PfCRT3D7 control)
  activity at 5000 µM: 97 ± 2.9%
[5]; SEM, read-out: Uptake of [3H]CQ (% PfCRTDd2 control), trans-stimulation, PfCRT3D7
  activity at 45000 µM: 3.3 ± 0.02%
[5]; read-out: PfCRT-mediated [3H]CQ transport, trans-stimulation (% PfCRT3D7 control)
  activity at 45000 µM: 96 ± 3.1%
[5]; read-out: Uptake of [3H]CQ (% PfCRT3D7 control), trans-stimulation
  activity at 45000 µM: 98 ± 2.8%
[5]; total [3H]CQ transport, [test solute]i = 5 mM (intracellular), mean ± SEM, SEM, read-out: Uptake of [3H]CQ (% PfCRTDd2 control), trans-stimulation, PfCRT3D7
  activity at 5000 µM: 3.3 ± 0.1%
[6]; PfNT1 oocytes, [test solute]i = 5 mM, normalised to the oocyte type control, read-out: Uptake of [3H]CQ (% PfNT1 control), trans-stimulation
  activity at 5000 µM: 99 ± 3.5%
[6]; SEM, read-out: Uptake of [3H]CQ (% PfCRTDd2 control), trans-stimulation, PfNT1
  activity at 45000 µM: 2.6 ± 0.08%
[6]; read-out: Uptake of [3H]CQ (% PfNT1 control), trans-stimulation
  activity at 45000 µM: 100 ± 2.6%
[6]; [test solute]i = 5 mM (intracellular), mean ± SEM, SEM, read-out: Uptake of [3H]CQ (% PfCRTDd2 control), trans-stimulation, PfNT1
  activity at 5000 µM: 2.8 ± 0.05%
[7]
  Tested as potential co-substrate but not required for influx of VF-6 via PfCRT into the oocyte: X
[8]; [16]
  inhibition at 500 µM: 94 ± 1.1%
  inhibition at 1000 µM: 95 ± 1.3%
  inhibition at 2000 µM: 94 ± 3.7%
[8]; [17]
  inhibition at 500 µM: 31 ± 1.1%
  inhibition at 1000 µM: 32 ± 1.9%
  inhibition at 2000 µM: 31 ± 1.3%
[8]; [18]
  inhibition at 500 µM: 96 ± 3.1%
  inhibition at 1000 µM: 98 ± 2.4%
  inhibition at 2000 µM: 96 ± 2.2%
[8]; [19]
  inhibition at 500 µM: 28 ± 0.6%
  inhibition at 1000 µM: 29 ± 0.8%
  inhibition at 2000 µM: 28 ± 1.5%
[9]; [20]
  inhibition at 500 µM: 95 ± 3.6%
  inhibition at 2000 µM: 92 ± 5.6%
[9]; [21]
  inhibition at 500 µM: 97 ± 2.5%
  inhibition at 1000 µM: 96 ± 3.6%
  inhibition at 2000 µM: 94 ± 3.2%
[10]; [test solute]i = 5 mM
  Uptake of [3H]CQ (% non-expressing oocyte control), trans-stimulation: 101 ± 3.2 % non-expressing oocyte control
[10]; [test solute]i = 45 mM (30 mM for some solutes due to solubility)
  Uptake of [3H]CQ (% non-expressing oocyte control), trans-stimulation: 99 ± 2.4 % non-expressing oocyte control
[10]; [test solute]i = 5 mM (intracellular)
  Uptake of [3H]CQ (% PfCRTDd2 control), trans-stimulation, non-expressing oocytes: 2.4 ± 0.08 % PfCRTDd2 control
[10]; [test solute]i = 45 mM (intracellular; 30 mM for some solutes due to solubility)
  Uptake of [3H]CQ (% PfCRTDd2 control), trans-stimulation, non-expressing oocytes: 2.8 ± 0.02 % PfCRTDd2 control
[11]
  Tested as potential co-substrate but not required for influx of VF-6 via PfCRT into the oocyte: X
